# In the supplement of paper PMC10307832:
# Assays:
# Experiment in all cases: relative viability (nuclei count vs DMSO), 5 days (fraction); higher = more cells survive
# 201T = system: 201T
# Summary of the method: (§1)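 Medians of duplicate plates are given as relative viability. That measure is the nuclei count in treated wells divided by the count in vehicle wells. Counts were taken on 4× images of lung cancer cell lines in 1536-well plates, 5 days after pin-tool dosing the day after seeding with one drug alone or a fixed anchor-drug dose plus five library-drug doses (not always all listed) in √10 steps.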
# BEN = system: BEN
# Summary of the method: as §1
# COR-L 105 = system: COR-L 105
# Summary of the method: as §1
# EMC-BAC-2 = system: EMC-BAC-2
# Summary of the method: as §1
# H3255 = system: H3255
# Summary of the method: as §1
# HARA = system: HARA
# Summary of the method: as §1
# HCC-78 = system: HCC-78
# Summary of the method: as §1
# HOP-62 = system: HOP-62
# Summary of the method: as §1
# LC-2-ad = system: LC-2-ad
# Summary of the method: as §1
# LOU-NH91 = system: LOU-NH91
# Summary of the method: as §1
# LU99A = system: LU99A
# Summary of the method: as §1
# LXF-289 = system: LXF-289
# Summary of the method: as §1
# NCI-H1395 = system: NCI-H1395
# Summary of the method: as §1
# NCI-H1563 = system: NCI-H1563
# Summary of the method: as §1
# NCI-H1993 = system: NCI-H1993
# Summary of the method: as §1
# NCI-H2087 = system: NCI-H2087
# Summary of the method: as §1
# NCI-H2126 = system: NCI-H2126
# Summary of the method: as §1
# NCI-H2170 = system: NCI-H2170
# Summary of the method: as §1
# NCI-H650 = system: NCI-H650
# Summary of the method: as §1
# RERF-LC-KJ = system: RERF-LC-KJ
# Summary of the method: as §1
# SK-MES-1 = system: SK-MES-1
# Summary of the method: as §1
# SW 900 = system: SW 900
# Summary of the method: as §1
# UMC-11 = system: UMC-11
# Summary of the method: as §1
compound,measurement,setting,value
CN1CCN(CCOc2cc(OC3CCOCC3)c3c(Nc4c(Cl)ccc5c4OCO5)ncnc3c2)CC1 [Saracatinib] + COc1cc2c(Oc3ccc(NC(=O)C4(C(=O)Nc5ccc(F)cc5)CC4)cc3F)ccnc2cc1OCCCN1CCOCC1 [Foretinib] (partner 0.25 µM),relative viability,201T; first compound 0.02 µM,1.16
same,relative viability,201T; first compound 0.2 µM,0.752
same,relative viability,201T; first compound 0.6325 µM,1
same,relative viability,201T; first compound 2 µM,0.693
same,relative viability,BEN; first compound 0.02 µM,0.753
same,relative viability,BEN; first compound 0.6325 µM,0.707
same,relative viability,BEN; first compound 2 µM,0.476
same,relative viability,COR-L 105; first compound 0.02 µM,0.973
same,relative viability,COR-L 105; first compound 0.2 µM,1.04
same,relative viability,COR-L 105; first compound 0.6325 µM,1.09
same,relative viability,COR-L 105; first compound 2 µM,0.816
same,relative viability,EMC-BAC-2; first compound 0.02 µM,1.01
same,relative viability,EMC-BAC-2; first compound 0.2 µM,0.8
same,relative viability,EMC-BAC-2; first compound 0.6325 µM,1.01
same,relative viability,EMC-BAC-2; first compound 2 µM,0.704
same,relative viability,H3255; first compound 0.02 µM,0.97
same,relative viability,H3255; first compound 0.2 µM,0.749
same,relative viability,H3255; first compound 0.6325 µM,0.987
same,relative viability,H3255; first compound 2 µM,0.3
same,relative viability,HARA; first compound 0.02 µM,0.873
same,relative viability,HARA; first compound 0.2 µM,0.751
same,relative viability,HARA; first compound 0.6325 µM,0.739
same,relative viability,HARA; first compound 2 µM,0.368
same,relative viability,HCC-78; first compound 0.02 µM,0.534
same,relative viability,HCC-78; first compound 0.6325 µM,0.678
same,relative viability,HCC-78; first compound 2 µM,0.413
same,relative viability,HOP-62; first compound 0.02 µM,1.17
same,relative viability,HOP-62; first compound 0.2 µM,1.02
same,relative viability,HOP-62; first compound 0.6325 µM,1.13
same,relative viability,HOP-62; first compound 2 µM,1.16
same,relative viability,LC-2-ad; first compound 0.02 µM,0.85
same,relative viability,LC-2-ad; first compound 0.2 µM,0.812
same,relative viability,LC-2-ad; first compound 0.6325 µM,0.934
same,relative viability,LC-2-ad; first compound 2 µM,0.658
same,relative viability,LOU-NH91; first compound 0.02 µM,0.867
same,relative viability,LOU-NH91; first compound 0.2 µM,0.661
same,relative viability,LOU-NH91; first compound 0.6325 µM,0.609
same,relative viability,LOU-NH91; first compound 2 µM,0.488
same,relative viability,LU99A; first compound 0.02 µM,0.811
same,relative viability,LU99A; first compound 0.2 µM,0.562
same,relative viability,LU99A; first compound 0.6325 µM,0.831
same,relative viability,LU99A; first compound 2 µM,0.536
same,relative viability,LXF-289; first compound 0.02 µM,0.922
same,relative viability,LXF-289; first compound 0.2 µM,0.748
same,relative viability,LXF-289; first compound 0.6325 µM,1.04
same,relative viability,LXF-289; first compound 2 µM,0.891
same,relative viability,NCI-H1395; first compound 0.02 µM,1.08
same,relative viability,NCI-H1395; first compound 0.2 µM,0.908
same,relative viability,NCI-H1395; first compound 0.6325 µM,1.03
same,relative viability,NCI-H1395; first compound 2 µM,0.856
same,relative viability,NCI-H1563; first compound 0.02 µM,0.924
same,relative viability,NCI-H1563; first compound 0.2 µM,0.782
same,relative viability,NCI-H1563; first compound 0.6325 µM,0.76
same,relative viability,NCI-H1563; first compound 2 µM,0.649
same,relative viability,NCI-H1993; first compound 0.02 µM,0.692
same,relative viability,NCI-H1993; first compound 0.2 µM,0.625
same,relative viability,NCI-H1993; first compound 0.6325 µM,0.696
same,relative viability,NCI-H1993; first compound 2 µM,0.552
same,relative viability,NCI-H2087; first compound 0.02 µM,1.07
same,relative viability,NCI-H2087; first compound 0.2 µM,0.874
same,relative viability,NCI-H2087; first compound 0.6325 µM,1.1
same,relative viability,NCI-H2087; first compound 2 µM,1.07
same,relative viability,NCI-H2126; first compound 0.02 µM,1.15
same,relative viability,NCI-H2126; first compound 0.2 µM,1.22
same,relative viability,NCI-H2126; first compound 0.6325 µM,1.17
same,relative viability,NCI-H2126; first compound 2 µM,1.07
same,relative viability,NCI-H2170; first compound 0.02 µM,0.989
same,relative viability,NCI-H2170; first compound 0.2 µM,0.705
same,relative viability,NCI-H2170; first compound 0.6325 µM,1.03
same,relative viability,NCI-H2170; first compound 2 µM,0.872
same,relative viability,NCI-H650; first compound 0.02 µM,0.996
same,relative viability,NCI-H650; first compound 0.2 µM,0.922
same,relative viability,NCI-H650; first compound 0.6325 µM,1.03
same,relative viability,NCI-H650; first compound 2 µM,1.03
same,relative viability,RERF-LC-KJ; first compound 0.02 µM,0.895
same,relative viability,RERF-LC-KJ; first compound 0.2 µM,0.855
same,relative viability,RERF-LC-KJ; first compound 0.6325 µM,0.917
same,relative viability,RERF-LC-KJ; first compound 2 µM,0.877
same,relative viability,SK-MES-1; first compound 0.02 µM,0.94
same,relative viability,SK-MES-1; first compound 0.2 µM,0.772
same,relative viability,SK-MES-1; first compound 0.6325 µM,0.798
same,relative viability,SK-MES-1; first compound 2 µM,0.533
same,relative viability,SW 900; first compound 0.02 µM,0.78
same,relative viability,SW 900; first compound 0.2 µM,0.737
same,relative viability,SW 900; first compound 0.6325 µM,0.919
same,relative viability,SW 900; first compound 2 µM,0.776
same,relative viability,UMC-11; first compound 0.02 µM,0.977
same,relative viability,UMC-11; first compound 0.6325 µM,0.982
same,relative viability,UMC-11; first compound 2 µM,0.734
